From patent US20190015416A1, “BTK INHIBITORS FOR TREATING NEUROBLASTOMA” (The Chinese University of Hong Kong, priority 2017, published 2019)

Legend:
[1] = system: NBL-S cells; assay: MTT proliferation assay; format: cell-based, human; conditions: 48 hr treatment or transfection, normalized to DMSO
Protocol: (§1) FIGS. 5A-5G: BTK signaling regulates cell proliferation. […] MTT were performed to measure the cell viability, the absorbance of treated cell groups was normalized to that of DMSO treated cells. (FIGS. 5C, 5D) MTT assay of NBL-S or SH-SY5Y cells transfected with BTK (FIG. 5C) or BTK siRNA (FIG. 5D) at 48 hr after transfection. […] (FIG. 5E) NBL-S cells and SH-SY5Y cells were treated with the inhibitors either separately or the combinations as indicated, and the treated cells were collected at different time points for MTT assay. The absorbance of treated cell groups was normalized to that of control cells treated with DMSO.
(§2) Neuroblastoma cells were seeded in 96-well plates at a concentration of 5×10^3 per well. After siRNA transfection or inhibitor treatment for 48 hours, 10 ul MTT ([…]) is added into every well followed by incubation for 4 hours. The absorbance was measured at A570 nm.

[2] = system: SH-SY5Y cells; assay: MTT proliferation assay; format: cell-based, human; conditions: 48 hr treatment or transfection, normalized to DMSO
Protocol: as §1, §2

[3] = system: SH-SY5Y tumor xenograft; conditions: SH-SY5Y xenograft in nude mice
From the text: SH-SY 5Y cells were inoculated into flanks of nude mice. Animals were randomly divided into four groups when tumor xenograft reached 100 mm^3. […] (FIG. 7B) Quantifications of the tumor xenografts weight. The data are expressed as mean values±S.D. (n=4 in each group). **P<0.01. […] Mean±SD values are presented. **p<0.01; *p<0.05. […] (FIG. 7D) Cell proliferations in tumor xenografts were elucidated by immunohistochemical (IHC) analysis with Ki67 antibody. Scale bar represents 50 μm. (FIG. 7E) Quantification of Ki-67-positive cells within the xenografts. Ki-67-positive cells were quantitated from 5 random fields of each tumor xenograft under the microscope (400×) using Image-Pro PLUS V6.0.0.260 software. The values were normalized to those from vehicle treated mice. The data were presented as mean values±S.D. (n=4). **p<0.01; *p<0.05. Apoptosis markers such as cleaved PARP and cleaved Caspase 3 in xenograft tumors were examined by Western blot. […] The signals densities were analyzed by Image J. The relative signals of cleavage PARP to total PARP, cleaved Caspase 3 to tubulin were normalized to those from vehicle treated mice.
Neuroblastoma xenografts in nude mice were established by injection of SH-SY5Y cells.

[4] = system: SH-SY5Y cells; assay: Cell cycle distribution by flow cytometry; format: cell-based, human; conditions: 24 hr, Ibrutinib 2.5 μM, NVP-TAE684 100 nM, Crizotinib 250 nM, control 64.90%

C[C@@H](Oc1cc(-c2cnn(C3CCNCC3)c2)cnc1N)c1c(Cl)ccc(F)c1Cl [Crizotinib]
cell proliferation (MTT) [1]: can be inhibited
cell proliferation (MTT) [2]: insensitive
proliferation of neuroblastoma cells in vivo (Ki67 immunostaining) ([3]; 14 days treatment): inhibited proliferation
cell apoptosis in tumor xenograft (cleaved caspase 3 and PARP) ([3]; Western blot): potentiated cell apoptosis
growth of neuroblastoma xenograft ([3]; intraperitoneal injection, 14 days): only moderately inhibited

C=CC(=O)N1CCC[C@@H](n2nc(-c3ccc(Oc4ccccc4)cc3)c3c(N)ncnc32)C1 [Ibrutinib, 1-((R)-3-(4-amino-3-(4-phenoxyphenyl)-1H-pyrazolo[3,4-d]pyrimidin-1-yl)pi-peridin-1-yl)prop-2-en-1-one]
cell portion at G0/G1 phase [4]: 73.8%

COc1cc(N2CCC(N3CCN(C)CC3)CC2)ccc1Nc1ncc(Cl)c(Nc2ccccc2S(=O)(=O)C(C)C)n1 [NVP-TAE684]
cell proliferation (MTT) [1]: can be inhibited
cell proliferation (MTT) [2]: can be inhibited
